Measured values from ChEMBL document CHEMBL1201862, “PubChem BioAssay data set” (2004).
The source made the active and inactive calls.

Experiments:
[1] = viability of uninfected HEp-2 cells – cell-based, HTS, cytotoxicity control for RSV inhibitor project, dose response (AID 2410); format: functional; settings: human respiratory syncytial virus
[2] = target: T1, Corticotropin-releasing factor receptor 2/Corticotropin-releasing factor-binding protein (Homo sapiens, UniProt P24387+Q13324); assay: Dose Response confirmation of uHTS hits for small molecule antagonists of the CRF-binding protein and CRF-R2 receptor complex.; format: functional; settings: read-out: IC50_Mean
T1 sequence (Q13324 whole entry): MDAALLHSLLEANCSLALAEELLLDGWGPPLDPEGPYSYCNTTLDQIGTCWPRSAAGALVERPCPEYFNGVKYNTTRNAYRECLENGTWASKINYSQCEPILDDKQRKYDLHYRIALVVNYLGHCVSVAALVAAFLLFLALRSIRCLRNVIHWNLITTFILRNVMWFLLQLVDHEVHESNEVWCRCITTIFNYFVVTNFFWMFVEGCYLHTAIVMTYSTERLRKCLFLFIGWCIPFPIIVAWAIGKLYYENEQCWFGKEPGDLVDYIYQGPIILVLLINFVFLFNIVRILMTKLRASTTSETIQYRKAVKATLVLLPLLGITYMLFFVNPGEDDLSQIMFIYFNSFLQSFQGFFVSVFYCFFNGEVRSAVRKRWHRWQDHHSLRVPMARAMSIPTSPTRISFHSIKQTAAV
T1 sequence (P24387 whole entry): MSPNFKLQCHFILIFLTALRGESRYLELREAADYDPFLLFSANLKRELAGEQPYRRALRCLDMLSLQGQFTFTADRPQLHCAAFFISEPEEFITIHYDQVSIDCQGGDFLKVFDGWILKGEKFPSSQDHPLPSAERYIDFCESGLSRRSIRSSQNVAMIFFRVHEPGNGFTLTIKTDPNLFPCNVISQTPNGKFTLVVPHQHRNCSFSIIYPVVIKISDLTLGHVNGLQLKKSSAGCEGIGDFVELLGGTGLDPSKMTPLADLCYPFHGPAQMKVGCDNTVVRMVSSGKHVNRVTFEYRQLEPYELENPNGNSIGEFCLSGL

[3] = target: T1, Corticotropin-releasing factor receptor 2/Corticotropin-releasing factor-binding protein; assay: activators of CRF receptor 2 with binding protein – uHTS hits, confirmation (AID 602473); format: functional; settings: read-out: EC50_Mean
Cytochrome P450 3A4 = Cytochrome P450 3A4 (Homo sapiens, UniProt P08684);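 note: CYP3A4 tested as one member of a cytochrome P450 panel screen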
Chain of Cytochrome P450 3A4 (P08684 whole entry): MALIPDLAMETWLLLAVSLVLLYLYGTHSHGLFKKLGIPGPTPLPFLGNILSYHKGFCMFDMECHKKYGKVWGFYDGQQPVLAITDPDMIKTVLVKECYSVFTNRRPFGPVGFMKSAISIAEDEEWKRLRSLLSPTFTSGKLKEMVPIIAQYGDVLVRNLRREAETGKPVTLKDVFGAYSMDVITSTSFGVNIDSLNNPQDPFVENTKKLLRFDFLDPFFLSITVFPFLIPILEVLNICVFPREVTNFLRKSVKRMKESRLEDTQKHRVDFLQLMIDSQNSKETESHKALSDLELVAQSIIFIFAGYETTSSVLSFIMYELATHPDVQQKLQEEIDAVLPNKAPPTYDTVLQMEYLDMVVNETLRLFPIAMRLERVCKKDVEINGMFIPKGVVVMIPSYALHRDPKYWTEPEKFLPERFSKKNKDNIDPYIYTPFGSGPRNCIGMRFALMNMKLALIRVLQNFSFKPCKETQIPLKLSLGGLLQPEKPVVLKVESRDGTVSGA

Cytochrome P450 2C9 = Cytochrome P450 2C9 (Homo sapiens, UniProt P11712)
Chain of Cytochrome P450 2C9 (P11712 whole entry): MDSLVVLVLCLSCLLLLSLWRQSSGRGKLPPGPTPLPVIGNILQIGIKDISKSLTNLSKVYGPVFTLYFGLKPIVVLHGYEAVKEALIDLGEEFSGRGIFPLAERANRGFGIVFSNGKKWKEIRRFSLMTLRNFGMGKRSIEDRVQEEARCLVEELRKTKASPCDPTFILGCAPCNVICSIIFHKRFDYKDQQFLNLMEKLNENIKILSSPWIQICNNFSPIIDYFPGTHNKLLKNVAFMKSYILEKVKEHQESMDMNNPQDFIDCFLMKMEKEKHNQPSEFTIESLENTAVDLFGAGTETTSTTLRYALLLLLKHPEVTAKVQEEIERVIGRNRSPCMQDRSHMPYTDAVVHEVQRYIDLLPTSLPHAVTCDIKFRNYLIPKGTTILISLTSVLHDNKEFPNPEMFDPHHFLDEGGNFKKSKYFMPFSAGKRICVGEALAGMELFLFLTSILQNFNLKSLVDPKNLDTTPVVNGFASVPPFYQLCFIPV

INS1 = assay: INS-1E survival protection against cytokine death – cell-based, luminescence, retest, dose response (AID 449756); format: functional; settings: Rattus norvegicus;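 note: cell death triggered by IL-1 beta plus TNF-alpha plus IFN-gamma mixture; protective hits raise ATP signal compared with cytokine alone wells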
[4] = target: T2, Calpain-2 catalytic subunit (Sus scrofa, UniProt P43367); assay: m-calpain protease blockers, concentration series – biochemical, fluorogenic peptide substrate, dose response (AID 1420); format: functional
T2 sequence (P43367 whole entry): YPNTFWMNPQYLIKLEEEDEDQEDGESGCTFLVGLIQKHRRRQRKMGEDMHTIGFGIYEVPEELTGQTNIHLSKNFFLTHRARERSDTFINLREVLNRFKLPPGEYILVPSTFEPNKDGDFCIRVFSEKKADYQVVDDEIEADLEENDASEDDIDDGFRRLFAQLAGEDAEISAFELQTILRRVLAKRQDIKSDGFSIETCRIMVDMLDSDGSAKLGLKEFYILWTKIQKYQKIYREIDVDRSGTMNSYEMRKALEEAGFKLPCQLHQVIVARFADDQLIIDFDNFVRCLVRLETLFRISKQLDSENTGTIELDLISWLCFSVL

Cytochrome P450 2C19 = Cytochrome P450 2C19 (Homo sapiens, UniProt P33261); assay: Cytochrome panel assay with activity outcomes. Panel member name: p450-cyp2c19 Compounds with AC50 equal or less than 10 uM are considered active; format: functional; settings: read-out: AC50
Chain of Cytochrome P450 2C19 (P33261 whole entry): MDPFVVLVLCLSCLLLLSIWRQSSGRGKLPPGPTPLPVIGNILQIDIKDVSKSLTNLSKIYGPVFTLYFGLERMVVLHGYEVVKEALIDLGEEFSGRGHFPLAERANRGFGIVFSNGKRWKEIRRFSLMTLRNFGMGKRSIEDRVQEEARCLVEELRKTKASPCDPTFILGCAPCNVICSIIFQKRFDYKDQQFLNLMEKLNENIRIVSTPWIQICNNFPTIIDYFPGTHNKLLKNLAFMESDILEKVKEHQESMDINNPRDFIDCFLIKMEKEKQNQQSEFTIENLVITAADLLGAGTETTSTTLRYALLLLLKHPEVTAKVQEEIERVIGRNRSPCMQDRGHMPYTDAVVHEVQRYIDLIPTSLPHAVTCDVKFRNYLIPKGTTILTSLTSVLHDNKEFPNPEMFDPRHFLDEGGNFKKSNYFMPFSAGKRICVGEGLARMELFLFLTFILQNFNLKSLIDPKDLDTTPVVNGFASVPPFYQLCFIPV

Cytochrome P450 2D6 = Cytochrome P450 2D6 (Homo sapiens, UniProt P10635);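 note: CYP2D6 member of a cytochrome P450 panel assay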
Chain of Cytochrome P450 2D6 (P10635 whole entry): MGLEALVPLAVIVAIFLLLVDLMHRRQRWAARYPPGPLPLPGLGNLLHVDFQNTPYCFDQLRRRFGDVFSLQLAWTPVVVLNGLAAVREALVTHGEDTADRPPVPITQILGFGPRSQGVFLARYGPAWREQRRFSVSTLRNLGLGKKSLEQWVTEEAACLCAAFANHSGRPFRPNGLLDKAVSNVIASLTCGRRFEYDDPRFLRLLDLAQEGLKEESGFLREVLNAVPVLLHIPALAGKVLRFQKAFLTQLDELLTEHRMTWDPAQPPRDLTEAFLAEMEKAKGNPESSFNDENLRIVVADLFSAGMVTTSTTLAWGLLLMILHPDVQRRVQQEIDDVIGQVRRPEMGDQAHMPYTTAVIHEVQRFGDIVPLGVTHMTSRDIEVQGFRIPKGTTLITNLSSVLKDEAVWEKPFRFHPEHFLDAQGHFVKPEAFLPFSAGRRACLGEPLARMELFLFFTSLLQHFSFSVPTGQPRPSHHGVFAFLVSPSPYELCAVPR

[5] = Luminescence Cell-Based Dose Response HTS to Identify Inhibitors of 5'UTR Stem-Loop Driven Prion Protein mRNA Translation in H4 Neuroglioblastoma Cells. [Related pubchem assays: 1827 (Project Summary), 1813 (Primary HTS)]; format: functional
[6] = alpha-synuclein stem-loop luciferase translation blockers – H4 neuroglioma cells, luminescence, confirmation (AID 1988); format: functional, cell-based
[7] = luciferase reporter signal suppression in cells – H4 neuroglioma cells, luminescence, dose response (AID 1990); format: functional, cell-based
Cytochrome P450 1A2 = target: T3, Cytochrome P450 1A2 (Homo sapiens, UniProt P05177);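 note: PubChem cytochrome P450 panel assay, CYP1A2 panel member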
T3 sequence (P05177 whole entry): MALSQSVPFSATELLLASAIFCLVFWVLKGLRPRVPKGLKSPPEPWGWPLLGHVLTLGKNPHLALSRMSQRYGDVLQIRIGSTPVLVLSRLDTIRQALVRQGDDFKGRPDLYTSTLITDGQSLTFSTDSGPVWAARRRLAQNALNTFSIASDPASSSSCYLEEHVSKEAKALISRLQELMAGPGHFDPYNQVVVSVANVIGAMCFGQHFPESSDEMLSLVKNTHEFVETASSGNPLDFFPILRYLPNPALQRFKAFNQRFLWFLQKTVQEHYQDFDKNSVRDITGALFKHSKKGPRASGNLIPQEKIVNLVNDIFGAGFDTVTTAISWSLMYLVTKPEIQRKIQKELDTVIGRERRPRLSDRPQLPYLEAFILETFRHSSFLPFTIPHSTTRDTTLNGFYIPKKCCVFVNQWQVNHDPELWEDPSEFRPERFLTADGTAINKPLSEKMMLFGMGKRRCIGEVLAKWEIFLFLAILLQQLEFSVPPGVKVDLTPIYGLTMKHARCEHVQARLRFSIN

[8] = system: Streptococcus sp. 'group A'; assay: Streptococcus pyogenes SK(-)GAS viability under kanamycin – luminescence, BacTiterGlo, confirmation, counter-screen for streptokinase expression inhibitor project, dose response (AID 1900); format: functional, organism-based
Streptococcus = assay: GAS UMAA2166 growth inhibition – luminescence, BacTiterGlo, counter-screen for streptokinase expression inhibitor project, dose response (AID 1915); format: functional, organism-based;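 note: potency for reduction of bacterial viability or growth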

FC(F)(F)c1ccccc1-c1nc(-c2ccncc2)no1
CC50 [1]: 30.5 µM (active)
IC50 [2]: > 47.1 µM (inactive)
EC50 [3]: > 53 µM (inactive)

Cc1ccc(C)n1NC(=O)c1ccccc1
AC50 (Cytochrome P450 3A4): 31.6 µM (inconclusive)
AC50 (Cytochrome P450 2C9): 0.141 µM (inconclusive)

Cc1ccccc1OC1C(=O)N(Cc2ccc3c(c2)OCO3)C1c1sccc1C (stereo not given)
AC50 (INS1): 11.4 µM (active)

O=C(c1ccc(Oc2ccccc2)cc1)c1nc2c(n1O)CCCC2
IC50 [4]: 12.9 µM (not active)

CCN(c1cccc(C)c1)c1nc2ccsc2c(=O)s1
IC50 [2]: > 47.1 µM (inactive)
EC50 [3]: > 53 µM (inactive)

O=C(/C=C/c1ccccc1[N+](=O)[O-])N1CCOCC1
IC50 [2]: > 47.1 µM (inactive)
EC50 [3]: > 53 µM (inactive)

CC(=O)c1ccccc1NC(=O)Cn1c(=O)cnc2ccccc21
IC50 [2]: > 47.1 µM (inactive)
EC50 [3]: > 53 µM (inactive)

CCc1cccc2c(SCC(=O)NCC3CCCO3)nc(-c3ccc(F)cc3)nc12 (stereo not given)
IC50 [4]: 26.2 µM (not active)

Cc1ccc(-c2nc(-c3nccc4ccccc34)oc2-c2ccccc2)cc1
AC50 (Cytochrome P450 3A4): 5.01 µM (inconclusive)
AC50 (Cytochrome P450 2C19): 5.01 µM (inconclusive)

O=C(COC(=O)COc1ccc(Cl)cc1Br)NCc1cccs1
IC50 [2]: > 47.1 µM (inactive)
EC50 [3]: > 53 µM (inactive)

c1cc2c(cc1C1CCCCC1)c1c3n2CCN[C@H]3CCC1
AC50 (Cytochrome P450 3A4): 31.6 µM (inconclusive)
AC50 (Cytochrome P450 2C9): 20 µM (inconclusive)
AC50 (Cytochrome P450 2D6): 12.6 µM (inconclusive)

O=C1NN=C(c2ccc(Cl)cc2)CC1c1cccc(Br)c1 (stereo not given)
IC50 [4]: 12.5 µM (not active)

CCCCCCC(=O)N1C/C=C\C(c2ccc(OC)cc2)N(Cc2ccc(F)cc2)C(=O)[C@H]1Cc1ccccc1 (stereo not given in full)
EC50 [5]: > 120 µM (not active)
EC50 [6]: 9.71 µM (active)
AC50 (INS1): 6.16 µM (active)
EC50 [7]: > 120 µM (not active)

CCCC1Cc2c(sc(NC(=S)NC(=O)c3ccccc3)c2C#N)CO1 (stereo not given)
IC50 [4]: 31 µM (not active)

Cc1ccccc1OCCNc1ccc(C(F)(F)F)cc1[N+](=O)[O-]
AC50 (Cytochrome P450 3A4): 31.6 µM (inconclusive)
AC50 (Cytochrome P450 2C19): 0.316 µM (inconclusive)
AC50 (Cytochrome P450 2D6): 5.01 µM (inconclusive)

Nc1ccc(Nc2ccc([N+](=O)[O-])cc2[N+](=O)[O-])cc1
AC50 (INS1): 59.4 µM (active)

Cc1ccc(-c2nnc(C)c(N3CC(C)OC(C)C3)n2)cc1 (stereo not given)
AC50 (Cytochrome P450 3A4): 5.01 µM (inconclusive)
AC50 (Cytochrome P450 1A2): 4.47 µM (inconclusive)

CCNC(=O)NCc1c(C)c(C)n(Cc2ccccc2)c1-n1cccc1
IC50 [4]: 8.86 µM (not active)

CC(NC(=O)CCCCCN1C(=O)c2ccccc2C1=O)c1ccc2c(c1)CCCC2 (stereo not given)
IC50 [4]: 10.7 µM (not active)

Cc1nc(SCC(=O)NC(C)c2ccccc2)c2oc3ccccc3c2n1 (stereo not given)
IC50 [4]: < 0.4 µM (not active)

Cc1ccc(-c2csc(NC(=S)NC(=O)c3ccco3)n2)cc1
IC50 [4]: 4.46 µM (not active)

O=C(COC(=O)c1ccncc1)Nc1cc(S(=O)(=O)N2CCOCC2)ccc1Cl
IC50 [2]: > 47.1 µM (inactive)
EC50 [3]: > 53 µM (inactive)

COc1ccc(N(C(=O)c2ccco2)C(C(=O)NC2CCCC2)c2ccc(N3CCOCC3)cc2)c(OC)c1 (stereo not given)
IC50 [2]: > 47.1 µM (inactive)
EC50 [3]: > 53 µM (inactive)

COc1ccc2[nH]c3c(c2c1)CCN1C(=O)C(CC(=O)NCCc2ccccn2)C[C@H](C(=O)N(C(C)C)C(C)C)[C@@]31C (stereo not given in full)
IC50 [2]: > 47.1 µM (inactive)
EC50 [3]: > 53 µM (inactive)

CCCCCC(=O)NNC(=O)c1ccc(F)cc1
IC50 [2]: > 47.1 µM (inactive)
EC50 [3]: > 53 µM (inactive)

O=C(CNc1ccccc1)N/N=C/c1c(O)ccc2ccccc12
AC50 (INS1): 3.29 µM (active)
EC50 [8]: 1.02 µM (active)
EC50 (Streptococcus): 0.939 µM (active)

O=C(N/N=C\c1ccc(Sc2ccccn2)o1)c1cccc(Br)c1
AC50 (Cytochrome P450 3A4): 22.4 µM (inconclusive)
AC50 (Cytochrome P450 2D6): 28.2 µM (inconclusive)
